Measured values: US20140154721A1, “Cellulase Assay” (Megazyme IP Limited, priority 2012, published 2014)
“Also recorded” adds a separate entry of the source.

Columns and labels:
[1] = test system: cellulase from Trichoderma longibrachiatum; assay: Cellulase assay: release of C1PNP/PNP (absorbance 400 nm) from substrates, with and without β-glucosidase; format: biochemical; details: 40° C., pH 4.5; for sensitivity of the assay (rate of release of C1PNP) in the presence vs absence of β-glucosidase: absorbance 400 nm vs. time, FIGS. 3a-3b
Text: FIGS. 3a-3b are graphs of absorbance (400 nm) vs. time, for the action of a cellulase from Trichoderma longibrachiatum on. […] In contrast, for BC1PNP-G3 (3b) the endo-acting Trichoderma cellulase cleaves the glycosidic bond either between two glucosyl units or between the bond between the terminal glucosyl unit and C1PNP releasing an end-blocked cello-oligosaccharide and a non-blocked C1PNP-cello-oligosaccharide fragment, or free C1PNP. The β-glucosidase in the assay mixture immediately hydrolyses the non-blocked C1PNP-cello-oligosaccharide released, giving D-glucose and free C1PNP.
FIG. 4 is a graph of absorbance (400 nm) vs. time, for the action of a cellulase from Trichoderma longibrachiatum (1500 milli-International Units on CMC-4M per assay) on p-nitrophenyl cellobiose (PNP-G2), 2-chloro-4-nitrophenyl cellobiose (C1PNP-G2), end-blocked p-nitrophenyl cellobiose (BPNP-G2) and end-blocked 2-chloro-4-nitrophenyl cellobiose (BC1PNP-G2) in the absence of added β-glucosidase at 40° C. and pH 4.5 using an assay of the invention (embodiment Two).
(§1) Prepare substrate solution by dissolving end-blocked p-nitrophenyl cello-oligosaccharides or end-blocked 2-Cl-4-nitrophenyl cello-oligosaccharide (DP 2, 3 or 4) in 2 mL of dimethyl sulphoxide to obtain a concentration of 12.5 mM. Cool this solution in ice and add 3 mL of 170 mM potassium chloride solution with mixing, to give a final substrate concentration of 5 mM. Prepare this solution fresh before use, or warm to 40° C. before use to ensure complete dissolution.
Add an aliquot (0.1 mL) of the substrate solution to the bottom of a 16×120 mm glass test tube, followed by 0.05 mL of pure β-glucosidase (Second embodiment only). Incubate tubes for 2 min at the selected reaction temperature and initiate the reaction by adding 0.1 mL of sample solution containing cellulase in 200 mM buffer solution of the desired pH (usually in the range of 4.5 to 8.0). […] Mix the tube contents and measure the absorbance at 400 nm against a reaction blank.

[2] = test system: cellulase from Aspergillus niger; assay: Cellulase assay: release of C1PNP (absorbance 400 nm) from end-blocked substrates, with and without β-glucosidase; format: biochemical; details: 40° C., pH 4.5; absorbance 400 nm vs. time; FIGS. 2a-2b
Description: FIGS. 2a-2b are graphs of absorbance (400 nm) vs. time, for the action of a cellulase from Aspergillus niger on. […] FIG. 2b shows_end-blocked 2-chloro-4-nitrophenyl cellotriose (BC1PNP-G3) (700 milli-International Units per assay) at 40° C. and pH 4.5 in the presence and the absence of β-glucosidase using an assay of the invention. […] Note: One International Unit of enzyme activity as defined is the amount of enzyme required to release one micromole of reducing sugar equivalents per minute from carboxymethyl cellulose 4M (CMC-4M) (10 mg/mL) in 100 mM sodium acetate buffer (pH 4.5).
as §1
Add an aliquot (0.1 mL) of the substrate solution to the bottom of a 16×120 mm glass test tube, followed by 0.05 mL of pure β-glucosidase (Second embodiment only). […] Mix the tube contents and measure the absorbance at 400 nm against a reaction blank.

Substance	sensitivity of the assay (rate of release of C1PNP) in the presence vs absence of β-glucosidase [1]	sensitivity of the assay (rate of release of C1PNP) in the presence vs absence of β-glucosidase [2]	rate of hydrolysis by Trichoderma cellulase (comparison of substrates) ([1]; absence of added β-glucosidase, 1500 milli-International Units per assay, FIG. 4)
end-blocked 2-chloro-4-nitrophenyl cellobiose [BC1PNP-G2]	same sensitivity of the assay; also recorded: the same result is seen	same sensitivity of the assay; also recorded: no increase in the colour formed	
end-blocked 2-chloro-4-nitrophenyl cellotriose [BC1PNP-G3]	greater sensitivity of the assay in the presence of added β-glucosidase	same sensitivity of the assay; also recorded: no increase in the colour formed	
end-blocked p-nitrophenyl cellobiose [BPNP-G2]			slower rate than BC1PNP-G2
